Reference: patent EP2552195B1, “ANTIMICROBIAL OIL-IN-WATER EMULSION” (B. Braun Melsungen AG, priority 2010, dated 2011)

How the values were obtained:
Assay type in all cases: cell-based
[1] = test system: Prüfmikroorganismen; assay: Inactivator test, overall statement for all four test organisms; settings: concentration range 0,02 - 0,05 Gew.-% in o/w emulsion
Source text: (§1) Um die Wirksamkeit der antimikrobiellen Wirkstoffe in einem bestimmten Konzentrationsbereich in einer Öl in Wasser Emulsion zu testen wurde ein Inaktivatortest nach prEN13727 (2008) und prEN13624 (2010) gegenüber Enterococcus hirae (ATCC 10541), Escherichia coli (ATCC 11229), Pseudomonas aeruginosa (ATCC 15442) und Staphylococcus aureus (ATCC 6538) für n = 4 durchgeführt. Die Messergebnisse sind in Tabelle 8 wiedergegeben. Tabelle 8

[2] = test system: Pseudomonas aeruginosa (ATCC 15442); assay: Inactivator test per prEN13727 (2008) and prEN13624 (2010); settings: n = 4
Source text: (§2) Es wurden Öl in Wasser Emulsionen hergestellt, die unterschiedliche Mengen X des antimikrobiellen Wirkstoffs Polyhexamethylenbiguanidiniumhydrochlorid (PHMB) [erfindungsgemäß] und Chlorhexidin (CHX) [Vergleich] aufweisen. Die Öl in Wasser Emulsionen sind in Tabelle 7 wiedergegeben. Tabelle 7
as §1

[3] = test system: Enterococcus hirae (ATCC 10541); assay: as above; settings: n = 4
Source text: as §2, §1

[4] = test system: Escherichia coli (ATCC 11229); assay: as above; settings: n = 4
Source text: as §2, §1

[5] = test system: Staphylococcus aureus (ATCC 6538); assay: as above; settings: n = 4
Source text: as §2, §1

[6] = 0,02% active in o/w emulsion (Tabelle 7)
[7] = 0,03% active in o/w emulsion (Tabelle 7)
[8] = 0,04% active in o/w emulsion (Tabelle 7)
[9] = 0,05% active in o/w emulsion (Tabelle 7)

N=C(NCCCCCCNC(=N)NC(=N)Nc1ccc(Cl)cc1)NC(=N)Nc1ccc(Cl)cc1 [CHX, Chlorhexidin]
mikrobiozide Wirkung in der Öl in Wasser Emulsion [1]: inaktiviert vollständig | Kolonien-bildende Einheiten P. aeruginosa [2, 6]: 316 ± 50 | Kolonien-bildende Einheiten P. aeruginosa [2, 7]: 315 ± 43 | Kolonien-bildende Einheiten P. aeruginosa [2, 8]: 355 ± 10 | Kolonien-bildende Einheiten P. aeruginosa [2, 9]: 339 ± 37 | Kolonien-bildende Einheiten E. hirae [3, 6]: 104 ± 4 | Kolonien-bildende Einheiten E. hirae [3, 7]: 102 ± 5 | Kolonien-bildende Einheiten E. hirae [3, 8]: 106 ± 3 | Kolonien-bildende Einheiten E. hirae [3, 9]: 106 ± 3 | Kolonien-bildende Einheiten E. coli [4, 6]: 132 ± 1 | Kolonien-bildende Einheiten E. coli [4, 7]: 131 ± 5 | Kolonien-bildende Einheiten E. coli [4, 8]: 130 ± 9 | Kolonien-bildende Einheiten E. coli [4, 9]: 130 ± 9 | Kolonien-bildende Einheiten S. aureus [5, 6]: 149 ± 5 | Kolonien-bildende Einheiten S. aureus [5, 7]: 156 ± 13 | Kolonien-bildende Einheiten S. aureus [5, 8]: 160 ± 8 | Kolonien-bildende Einheiten S. aureus [5, 9]: 159 ± 10
